PubChem BioAssay (NCI)
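In this assay, cells in 96-well plates receive the compound at five concentrations for 48 hours. Endpoints are linearly interpolated between the surrounding concentrations. At the TGI there is no net growth.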

Legend:
Experiment in all cases: growth of human tumour cells (NCI), 48 h
NCI-H23 lung = system: NCI-H23 lung
KM12 colon = system: KM12 colon
DU-145 prostate = system: DU-145 prostate
NCI-H522 lung = system: NCI-H522 lung
SN12C renal = system: SN12C renal
EKVX NSCLC = system: EKVX NSCLC
T-47D breast = system: T-47D breast
SF-539 CNS = system: SF-539 CNS
PC-3 prostate = system: PC-3 prostate
SK-MEL-2 melanoma = system: SK-MEL-2 melanoma
BT-549 breast = system: BT-549 breast

| Compound | TGI (NCI-H23 lung) | TGI (KM12 colon) | TGI (DU-145 prostate) | TGI (NCI-H522 lung) | TGI (SN12C renal) | TGI (EKVX NSCLC) | TGI (T-47D breast) | TGI (SF-539 CNS) | TGI (PC-3 prostate) | TGI (SK-MEL-2 melanoma) | TGI (BT-549 breast) |
| --- | --- | --- | --- | --- | --- | --- | --- | --- | --- | --- | --- |
| O=C(/C=C\c1ccccc1-c1ccccc1)c1ccccc1 | > 100 µM | > 100 µM | > 100 µM | > 100 µM | > 100 µM | > 100 µM | 96 µM | > 100 µM | – | – | – |
| O=c1[nH]n(Cc2ccccc2CCl)c2ccc([N+](=O)[O-])cc12 | > 100 µM | > 100 µM | > 100 µM | 63.2 µM | > 100 µM | > 100 µM | – | > 100 µM | > 100 µM | > 100 µM | – |
| COc1ccc(/C=C/[N+](=O)[O-])cc1 | 59.9 µM | 12 µM | 20.3 µM | 43.4 µM | 56 µM | 41 µM | – | 4.92 µM | – | 52.7 µM | – |
| COc1ccc(-c2cc(-c3ccco3)c(C#N)c(=S)n2C2OC(CO)C(O)C(O)C2O)cc1 (centres undefined) | > 100 µM | > 100 µM | – | > 100 µM | > 100 µM | > 100 µM | – | > 100 µM | > 100 µM | > 100 µM | > 100 µM |
| O=C1c2ccccc2C(=O)c2c(O)c(O)cc(O)c21 | > 100 µM | > 100 µM | – | 96.1 µM | > 100 µM | > 100 µM | – | 66 µM | – | 69.1 µM | – |
| O=c1c2c3c(sc2nc2n1N=CN(c1ccc(Cl)cc1)C2)CCCC3 | > 100 µM | > 100 µM | > 100 µM | > 100 µM | > 100 µM | > 100 µM | > 100 µM | – | > 100 µM | > 100 µM | > 100 µM |
| C(/C=N/NC1=NCCCN1)=N\NC1=NCCCN1 | > 100 µM | > 100 µM | – | > 100 µM | > 100 µM | > 100 µM | > 100 µM | > 100 µM | > 100 µM | – | > 100 µM |
| CN1CCN(C(=S)N(C)C(=O)c2cccs2)CC1 | > 100 µM | > 100 µM | > 100 µM | > 100 µM | > 100 µM | – | > 100 µM | – | – | > 100 µM | > 100 µM |
| COC(=O)/C(=C/CC(N=C(c1ccccc1)c1ccccc1)C(=O)OC)N=C(c1ccccc1)c1ccccc1 (centres undefined) | > 100 µM | > 100 µM | – | > 100 µM | > 100 µM | > 100 µM | – | – | – | > 100 µM | – |
| Nc1ccc(C(=O)NN2C(=O)C(Cl)C2c2ccccc2O)cc1 (centres undefined) | > 100 µM | > 100 µM | – | > 100 µM | > 100 µM | > 100 µM | – | > 100 µM | – | > 100 µM | – |
| COC(=O)[C@]12CSC[C@H]1C[C@H](c1ccc(N(C)C)cc1)N2 | > 100 µM | > 100 µM | > 100 µM | – | > 100 µM | > 100 µM | > 100 µM | > 100 µM | > 100 µM | > 100 µM | > 100 µM |
| CNC(=S)NNC1=NCCCCN1 | > 100 µM | > 100 µM | – | > 100 µM | – | > 100 µM | > 100 µM | > 100 µM | > 100 µM | > 100 µM | > 100 µM |
| Cc1cc(NCC2CC/C(=C\C=C\c3ccccc3)C2=O)no1 (centres undefined) | > 100 µM | > 100 µM | > 100 µM | > 100 µM | > 100 µM | > 100 µM | > 100 µM | > 100 µM | > 100 µM | – | > 100 µM |
| Cc1cc2nc3c(C#N)c(-c4ccccc4)cc(Nc4ccc(F)cc4)n3c2cc1C | 47.2 µM | > 100 µM | – | 30.7 µM | 53.7 µM | 52.9 µM | > 100 µM | 34.8 µM | – | – | 56.3 µM |
| O=C(/C=C/c1cccs1)c1ccc(C(=O)/C=C/c2cccs2)cc1 | > 100 µM | > 100 µM | > 100 µM | > 100 µM | > 100 µM | > 100 µM | > 100 µM | > 100 µM | > 100 µM | – | > 100 µM |
| C=C1CC(COc2ccc3ccc(=O)oc3c2)(c2ccccc2)OC1=O (centres undefined) | 3.5 µM | 13.5 µM | 7.21 µM | 2.29 µM | 8.23 µM | 22 µM | – | – | 7.58 µM | 4.18 µM | 2.95 µM |
| CN(C)CCN1C(=O)c2ccccc2C1(O)c1ccc(Cl)cc1 (centres undefined) | > 100 µM | > 100 µM | > 100 µM | – | > 100 µM | > 100 µM | > 100 µM | – | > 100 µM | – | > 100 µM |
| CCOC(=O)c1c(NC(=O)c2ccc(OC)cc2)sc2c1CCCC2 | > 100 µM | > 100 µM | > 100 µM | – | > 100 µM | > 100 µM | > 100 µM | > 100 µM | > 100 µM | > 100 µM | > 100 µM |
| C/C(=N/NC(=S)N1CCCC1)c1cccc(/C(C)=N\NC(=S)N2CCCC2)n1 | 6.5 µM | 4.46 µM | 38.5 µM | 7.77 µM | 5.73 µM | 3.49 µM | – | 3.72 µM | 5.36 µM | 4.21 µM | 5.13 µM |
| CCOC(=O)C1C(c2ccc([N+](=O)[O-])cc2)NC(c2ccc([N+](=O)[O-])cc2)C(C(=O)OC)S1(=O)=O (centres undefined) | > 100 µM | > 100 µM | – | > 100 µM | > 100 µM | > 100 µM | – | – | – | > 100 µM | – |
| COc1cc(CCCC(O)COc2cccc3c2C2(O)CCCCCC32)cc(OC)c1 (centres undefined) | 32.6 µM | 34.5 µM | – | 42.1 µM | 31.8 µM | 30.6 µM | – | 28.1 µM | – | 35.7 µM | – |
| CC(C)N(c1cc2c(cc1F)c(=O)c(C(=O)O)cn2-c1ccc(N2CCN(C)CC2)cn1)C(C)C | > 100 µM | > 100 µM | > 100 µM | – | > 100 µM | > 100 µM | > 100 µM | > 100 µM | > 100 µM | – | > 100 µM |
| COc1ccc(C(CC(=O)c2ccccc2)C(=O)c2ccc3c(c2)OCO3)cc1 (centres undefined) | > 100 µM | > 100 µM | > 100 µM | – | > 100 µM | > 100 µM | > 100 µM | – | > 100 µM | > 100 µM | – |
| COc1ccc(-n2cnc3c(NC(C)(C)C(=O)O)ncnc32)cc1 | > 100 µM | > 100 µM | > 100 µM | – | > 100 µM | > 100 µM | > 100 µM | – | > 100 µM | > 100 µM | > 100 µM |
